Assays:
[1] = tested on: tissue guanylyl cyclase response to nitrates (aortic cGMP); assay: Acute effects: aortic cGMP after NTG bolus, with or without pre-treatment with the compounds; type: in vivo, rat
Experimental: • a) Acute effects: Rats (Spargue-Dawely) weighing 300-400 g were treated with an intravenous (i.v.) bolus dose of 2 mg nitroglycerin (NTG) before and after pre-treatment with the compounds (50 mg/kg) administered intraperitoneally. Compounds 1 and 2 from FIG. 1, compounds 9 and 10 from FIG. 2, compounds 17 and 18 from FIG. 3, compounds 25 a nd 26 from FIG. 4 were dissolved in a mixture of ethanol:propylene glycol:water (1:1:1) and administered in 1 ml intraperitoneally one hour before NTG administration. One minute after the NTG administration, the rats were sacrificed by decapitation and the aorta was removed quickly, immersed in a phosphate buffer solution containing 20 mM EDTA and immediately frozen in liquid nitrogen add stored at −70° until analyzed. Next day, the tissue were analyzed for their cGMP content. After thawing, tissue were weighed and homogenized in EDTA-phosphate buffer, centrifuged and the super collected into another tube. The pellet was washed with 1 ml buffer, vortex-mixed, centrifuged and the supernatant added to the second tube. 2 ml of acetonitrile were added to the tube containing the combined extracts and the tube vortex-mixed, centrifuged and the supernatant collected to another clean tube. […] The cGMP content of the solution was determined using a radioimmunoassay (RIA-Amersham) as previously reported by us. […]

[2] = tested on: vascular (aortic) guanylyl cyclase activity; assay: Prevention of nitrate tolerance: aortic cGMP after continuous NTG infusion, with or without the compounds; type: in vivo, rat; settings: for tolerance development to NTG / NO-donors (result in words): co-administration with nitrates
Experimental: • a) Acute effects: Rats (Spargue-Dawely) weighing 300-400 g were treated with an intravenous (i.v.) bolus dose of 2 mg nitroglycerin (NTG) before and after pre-treatment with the compounds (50 mg/kg) administered intraperitoneally. Compounds 1 and 2 from FIG. 1, compounds 9 and 10 from FIG. 2, compounds 17 and 18 from FIG. 3, compounds 25 a nd 26 from FIG. 4 were dissolved in a mixture of ethanol:propylene glycol:water (1:1:1) and administered in 1 ml intraperitoneally one hour before NTG administration. One minute after the NTG administration, the rats were sacrificed by decapitation and the aorta was removed quickly, immersed in a phosphate buffer solution containing 20 mM EDTA and immediately frozen in liquid nitrogen add stored at −70° until analyzed. Next day, the tissue were analyzed for their cGMP content. After thawing, tissue were weighed and homogenized in EDTA-phosphate buffer, centrifuged and the super collected into another tube. The pellet was washed with 1 ml buffer, vortex-mixed, centrifuged and the supernatant added to the second tube. 2 ml of acetonitrile were added to the tube containing the combined extracts and the tube vortex-mixed, centrifuged and the supernatant collected to another clean tube. The aqueous-acetonitrile solution in this latter tube was evaporated to dryness and the reside dissolved in assay buffer. The cGMP content of the solution was determined using a radioimmunoassay (RIA-Amersham) as previously reported by us.
Similar significant increases were also obtained when pre-treatment was performed with other compounds (see above). • b) Prevention: Rat were administered a continuos infusion of NTG known to induce tolerance with or without concomitant administration of the compounds (the same tested for the acute effects). The compounds were administered either in continuos i.v. infusion or intraperitoneally in 4 separated doses (q 6 hours). The effects on vascular (aortic) guanylyl cyclase activity was then evaluated as described above for control rats.

Compound | tissue guanylyl cyclase response to nitrates (result in words) ([1]; pre-treatment or co-administration with nitrate / NO donor) | tolerance development to NTG / NO-donors (result in words) [2] | cGMP ([1]; NTG alone, i.v. bolus 2 mg, aorta removed one minute after NTG) | cGMP ([2]; NTG-pretreatment: continuous NTG infusion known to induce tolerance, no compound, aorta)
O=C(O)CCCCC1CCSS1 (centres unmarked) [LA, 1,2-dithiolane-3-valeric acid] | enhances its activity | retards tolerance development |  | 
O=[N+]([O-])OCC(CO[N+](=O)[O-])O[N+](=O)[O-] [NTG, nitroglycerin] |  |  | 175 ± 13 pmol/g tissue | 64 ± 9 pmol/g tissue
lipoyl lipoate |  | prevents/retards tolerance development |  | 

From patent US6900338B1, “Scavenger compounds” (Yissum Research Development Company of the Hebrew …, priority 1998, dated 2005)
